Test results taken from PMC2862740, “Furin Targeted Drug Delivery for Treatment of Rhabdomyosarcoma in a Mouse Model” (PLoS ONE, 2010).
“Also recorded” adds a separate entry of the source. Positions of bridges follow the written chain, without caps; N, C: chain ends. No end group written: not given here.

Columns and labels:
membrane-bound furin = experiment: peptide affinity chromatography, RD-FUR lysate; type: binding; conditions: western blot, 97kDa
Procedure: (§1) Figure 5 RMS-P3/RR peptide binds directly to furin and inhibits its activity. Lysates of RD-FUR cells (approximately 1 mg of total protein, upper rows) or purified recombinant furin (250 ng; lower rows) were loaded on a RMS-P3/RR column (A) or on the control peptide column RMS-P3/AA (B). The columns were washed 10 times to remove unbound furin. The loaded RMS-P3/RR-column was eluted first with control peptide RMS-P3/AA, then with peptide RMS-P3/RR. The RMS-P3/AA column was eluted first with RMS-P3/RR and subsequently cross-eluted with the control peptide RMS-P3/AA. The presence of furin in aliquots from the columns (1) after binding, (2) flow through, (3) last wash, (4) control elution and (5) competitive elution with RMS-P3/RR (in A) and […] (in B), respectively, was detected by western blotting. (C) Fixed amounts of recombinant furin (3.3U) were incubated with increasing concentrations of RMS-P3/RR peptide or with control peptide (RMS-P3/AA). Furin activity was measured with the fluorogenic substrate Boc-RRVR-AMC at excitation 370 nm/emission 460 nm. The results of three independent experiments ± SD are shown.
(§2) RMS-P3/RR or control peptide RMS-P3/AA were dissolved in 0.2 M phosphate buffer pH 7.2 to 1 mg/ml and covalently linked to NHS-activated sepharose matrix SpinTrapTM (GE Healthcare, Amersham Biosciences, Switzerland). […]

RD cells = experiment: phage binding to RD cells; type: cell-based
Procedure: (§3) Figure 1 Validation of selected phages binding on RMS cells in vivo and in vitro. (A) Quantification of binding of single phage clones to different cell lines. Six phages selected from in vitro and in vivo screenings were validated individually in binding assays to three RMS cell lines (embryonal RMS: RD; alveolar RMS: Rh30 and Rh4) as well as to normal myoblasts (SkMC-c) and fibroblast cells (MRC-5). Phage clones are ordered according to the frequency of occurrence. Binding was calculated over non-recombinant T7, depicted are mean values ± SD of three independent experiments. (B) RMS-P3 and RMS-P6 phage distribution in RD mouse xenografts. Homing of phages to tumor was compared to control organs. Binding was normalized over phage T7 and tissue weight. Mean values ± SD of four independent experiments are shown. Numerical values for tumor to organ ratios are indicated above the bars. (C) Validation of RMS-P3 peptide sequence by competition of phage binding. 10^6 RD cells were incubated for 30 min with increasing concentrations of RMS-P3 peptide ([…]) or control peptide ([…]). Then, phages (10^9 pfu) were added for 1 h. Phage binding was normalized over non-recombinant T7. Data are presented as percentage of maximal phage binding obtained in the absence of synthetic peptide. Error bars indicate mean ± SD from three independent experiments. […]
Figure 3 Identification of the receptor for RMS-P3. […] Phage binding was quantified over non-recombinant T7 and compared to the binding of wild type phage RMS-P3. […] After tail vein injection of both FITC-RMS-P3/RR or control peptide RMS-P3/AA and circulation of 10 min, mice were perfused, tumors and control organs were dissected and FITC-peptide distribution (green) was evaluated in cryosections under fluorescence microscopy. […] (C) Expression of proprotein convertases (PCs) measured by microarray profiling of 9 RMS cell lines and 30 RMS biopsy samples. […] Immature membrane-bound furin was detected at 103 kD, mature furin at 97 kD. […]

recombinant human furin [1] = experiment: peptide affinity chromatography, recombinant furin; type: binding; conditions: recombinant human furin without membrane-domain (81 kD), overnight at 4°C, western blot
Procedure: as §1, §2

[2] = tested on: RD xenograft tumors and control organs; experiment: FITC-peptide distribution in xenograft mice; type: in vivo, mouse; conditions: RD xenografts, i.v., 10 min circulation
Procedure: Figure 2 FITC-labeled RMS-P3 binding in vitro and distribution in vivo. (A) Visualization of FITC-RMS-P3 peptide binding in normal and cancer cells in vitro. Cultured myoblasts (SkMC-c), fibroblasts (MRC-5), RMS cells (RD) and breast carcinoma cells (MDA-MB 231) were incubated with 100 nM FITC-RMS-P3 peptide for 1 h at 37°C. Fluorescence microscopy of fixed cells is shown. (B) Living RD cells were incubated with FITC-RMS-P3 peptide, subsequently fixed and stained with giantin (red). Colocalization is shown in the merged picture by yellow. Blue staining (DAPI) indicates the nuclei. Magnifications: 40x, scale bars: 20 µm. (C) Distribution of FITC-RMS-P3 and control peptide FITC-RMS-Pctrl in mice xenografts of RD cells. FITC-RMS-P3 or control FITC-RMS-Pctrl peptide were injected i.v. and after 10 minutes of circulation, mice were perfused and tumor and control organs were collected. Cryosections were double-labeled with mouse endothelial vessels markers CD31 and MECA-32 (red). Nuclear staining by DAPI is shown in blue. Magnifications: 40x, scale bars: 20 µm.
Figure 3 Identification of the receptor for RMS-P3. (A) Alanine-scan of the RMS-P3 sequence. RMS-P3 was mutated by replacing each amino acid residue with alanine (codon GCT). All phage mutants were tested individually for binding to RD cells in vitro. Mutated residues are indicated in bold. Phage binding was quantified over non-recombinant T7 and compared to the binding of wild type phage RMS-P3. Depicted are mean values ± SD of three independent experiments. […] (B) FITC-RMS-P3/RR and FITC-RMS-P3/AA distribution in RD xenograft mice. After tail vein injection of both FITC-RMS-P3/RR or control peptide RMS-P3/AA and circulation of 10 min, mice were perfused, tumors and control organs were dissected and FITC-peptide distribution (green) was evaluated in cryosections under fluorescence microscopy. Blood endothelial stainings (CD31 and MECA32) are shown in red, nuclear staining in blue (DAPI). Magnification: 20x, scale bar 50 µm. (C) Expression of proprotein convertases (PCs) measured by microarray profiling of 9 RMS cell lines and 30 RMS biopsy samples. Expression of PCs recognizing the cleavage site R(X)(R/K)(R/K) were considered. Each cell line or biopsy is represented by one data point. (D) Furin expression in different cell lines. Normal myoblasts (SkMC-c), fibroblasts (MRC-5), RMS cell lines (RD, Rh4, Rh30), furin-deficient colorectal carcinoma cells (LoVo) and furin-positive breast carcinoma cells (MBA-MB 231) were tested for furin expression by qRT-PCR (upper graph). […] Western blot (lower panels). Immature membrane-bound furin was detected at 103 kD, mature furin at 97 kD. PCNA was used as loading control.
Figure 6 FITC-RMS-P3/RR and FITC-RMS-P3/AA distribution in mice bearing RD xenografts. Peptides were injected i.v. and after circulation the mice were perfused, tumors and control organs were removed and peptide distribution was evaluated on cryosections by fluorescence microscopy. Depicted are overlay images (B, upper left panel) and single channel pictures. FITC-peptide stainings (green), either furin or endothelial stainings (CD31, MECA32) in red and cell nuclei in blue (DAPI) are shown. Magnification: 40x, scale bars 50 µm.
Supplementary file pone.0010445.s002.tif: Figure S2 Subcellular localization of FITC-RMS-P3 peptide. (A, B) FITC-RMS-P3/RR cell surface and intracellular localization. RD cells were incubated with 100 nM FITC-RMS-P3 peptide in vitro for 30 min at 4°C (A) or 37°C (B), respectively. Fixed cells were stained with undiluted 5.1H11 hybridoma supernatant against the human muscle-specific cell surface antigen N-CAM (red). A secondary rabbit anti-mouse Cy3 antibody (1∶300, Invitrogen) was used for detection. […] Cell nuclei were visualized with DAPI. Nuclei are indicated in grey. Magnification: 63x, scale bars: 20 µm. […]

U87MG cells = experiment: phage binding to glioblastoma cells; type: cell-based; conditions: compared to myoblasts and fibroblasts; p<0.05
Procedure: (§4) Supplementary file pone.0010445.s001.tif: Figure S1 Phage selection and validation on RMS cells in vivo and in vitro. (A) Biopanning on RD cells in vitro after negative selection on myoblasts (panning I) and (B) fibroblasts (panning II). Enrichment was calculated over non-recombinant phage T7. (C) In vivo selection in Rh4 xenografts. Phages from in vitro selection before enrichment were pooled and used for in vivo selection in Rh4 xenografts. Phages were injected in the tail vein and after 10 min circulation unbound phages were washed by perfusion. Phage binding to tumors and control organs was calculated over non-recombinant phage T7. (D) RMS-P3 and RMS-P6 phage distribution in Rh4 xenografts. Homing of phages in mouse xenografts bearing Rh4 tumors was determined and compared to control organs. Binding was normalized over phage T7 and tissue weight. Mean values of three independent experiments are shown. Numerical values for tumor to organ ratios are indicated above the bars. (E) Quantification of binding of RMS-P3 phage to a panel of tumor cell lines: RMS (RD, Rh30, Rh4), breast tumor (MDA-MB 231), glioblastoma (U87MG), melanoma (A365); and normal myoblasts (SkMC-c) and fibroblast cells (MRC-5). Mean values ± SD of three independent experiments are depicted. (0.55 MB TIF) Click here for additional data file.

A365 cells = experiment: phage binding to melanoma cells; type: cell-based; conditions: compared to myoblasts and fibroblasts; p<0.05
Procedure: as §4

RD xenograft tumors = experiment: phage homing in RD xenografts; type: in vivo, mouse; conditions: for phage binding to tumors versus any other organ: RD (or Rh4) xenografts, One-way ANOVA and Tukey-Kramer HSD
Procedure: Figure 1 Validation of selected phages binding on RMS cells in vivo and in vitro. (A) Quantification of binding of single phage clones to different cell lines. Six phages selected from in vitro and in vivo screenings were validated individually in binding assays to three RMS cell lines (embryonal RMS: RD; alveolar RMS: Rh30 and Rh4) as well as to normal myoblasts (SkMC-c) and fibroblast cells (MRC-5). Phage clones are ordered according to the frequency of occurrence. Binding was calculated over non-recombinant T7, depicted are mean values ± SD of three independent experiments. (B) RMS-P3 and RMS-P6 phage distribution in RD mouse xenografts. Homing of phages to tumor was compared to control organs. Binding was normalized over phage T7 and tissue weight. Mean values ± SD of four independent experiments are shown. Numerical values for tumor to organ ratios are indicated above the bars. (C) Validation of RMS-P3 peptide sequence by competition of phage binding. 10^6 RD cells were incubated for 30 min with increasing concentrations of RMS-P3 peptide ([…]) or control peptide ([…]). Then, phages (10^9 pfu) were added for 1 h. Phage binding was normalized over non-recombinant T7. Data are presented as percentage of maximal phage binding obtained in the absence of synthetic peptide. Error bars indicate mean ± SD from three independent experiments. […] TEXT PRINTED IN THE PICTURE: (B) RMS-P6: tumor: 1; muscle: 1/6; kidney: 1/8; brain: 1/28; skin: 1/12 | (B) RMS-P3: tumor: 1; muscle: 1/24; kidney: 1/15; brain: 1/12; skin: 1/10 DOUBTS OF THE COPYIST ABOUT THIS PICTURE: Panel B: the picture prints no measure for the numbers over the bars. Each tissue name was assigned from the bar fill and the order of the printed key. / RMS-P6, brain: 1/28, the last digit may be 8 or 6 (small print)
Phage (10^10 pfu) from in vitro biopannings were tail vein injected into mice bearing size-matched RMS tumors (500 mm^3) as described in [57].

Rh4 xenograft tumors = experiment: phage homing in Rh4 xenografts; type: in vivo, mouse; conditions: aRMS (Rh4) xenograft
Procedure: as §4

MDA-MB 231 cells = experiment: phage binding to breast carcinoma cells; type: cell-based; conditions: compared to myoblasts and fibroblasts; p<0.05
Procedure: as §4

recombinant human furin [3] = experiment: furin activity, fluorogenic substrate Boc-RRVR-AMC; type: biochemical
Procedure: The enzymatic activity of furin was determined by the cleavage of the fluorogenic substrate Boc-RRVR-AMC (Alexis biochemicals) in presence or absence of peptides. Human recombinant furin (3.3U for reaction; Alexis biochemicals) was preincubated for 15 minutes at RT with the peptide RMS-P3/RR or the peptide RMS-P3/AA as negative control at increasing concentrations. For each assay, the same concentration of substrate (100 µM) was added to a solution containing 50 mM Tris HCl with 1 mM CaCl2 (pH 7) in a total volume of 100 µl. The reaction was followed for 1h while measuring the fluorescence every 10 minutes in a spectrofluorometer at excitation 370 nm/emission 460 nm.

Rh30 cells = experiment: phage binding to Rh30 cells; type: cell-based; conditions: three independent experiments
Procedure: as §3

Rh4 cells = experiment: phage binding to Rh4 cells; type: cell-based; conditions: three independent experiments
Procedure: as §3

[4] = molecular target: recombinant human furin without membrane-domain (81 kD) (human) (UniProt P09958)

## CMGTINTATAAC (disulfide 1-12 (inferred)) [RMS-P3/AA]
membrane-bound furin
  furin in competitive eluate from peptide column: not the case
RD cells; alanine-scan, RD cells, three independent experiments, p<0.05
  decrease in phage binding compared to RMS-P3: 70 fold
Recombinant human furin [1]
  binding of recombinant furin to peptide column: did not bind recombinant furin
[2]
  peptide uptake in kidney: found in the kidneys
[2]; cryosections
  peptide accumulation in tumor: did not accumulate in the tumor; also recorded: No fluorescence was detectable

## CMGTINTRTKKC (disulfide 1-12 (inferred)) [phage RMS-P3]
U87MG cells
  phage binding to glioblastoma cells: significant binding; also recorded: very good binding
A365 cells
  phage binding to melanoma cells: significant binding; also recorded: very good binding
RD xenograft tumors
  phage binding to tumors versus any other organ: bound significantly better to tumors than to any other organ
RD xenograft tumors; phage, eRMS (RD) xenograft
  tumor/muscle ratio: 24 fold
Rh4 xenograft tumors
  tumor/muscle ratio: 24 fold
MDA-MB 231 cells
  phage binding to breast carcinoma cells: significant binding; also recorded: very good binding

## CMGTINTRTRRC (disulfide 1-12 (inferred)) [RMS-P3/RR]
membrane-bound furin
  furin in competitive eluate from peptide column: competitive eluates contained detectable amounts of membrane-bound furin
Recombinant human furin [3]; 100 µM peptide, % of the control, furin 3.3U, 15 min preincubation RT, substrate 100 µM, 50 mM Tris HCl, 1 mM CaCl2, pH 7, three independent experiments
  furin activity remaining: 14 % of the control
Recombinant human furin [3]; increasing concentrations
  effect on furin activity: concentration dependent decrease of furin activity
RD cells; both Lys replaced by Arg, One-way ANOVA, Tukey Kramer HSD, p<0.05 vs all other alanine mutants
  phage binding to RD cells compared to RMS-P3: no significant difference in binding to RD cells
Recombinant human furin [1]
  binding of recombinant furin to peptide column: detected a furin band in the specific eluate

## CMGTTNTRTKKC (disulfide 1-12 (inferred)) [RMS-P6]
Rh30 cells
  phage binding compared to non-recombinant phage T7: 120 fold
Rh4 cells
  phage binding compared to non-recombinant phage T7: 230 fold
RD xenograft tumors
  phage binding to tumors versus any other organ: bound significantly better to tumors than to any other organ
RD cells; RD cells, three independent experiments
  phage binding compared to non-recombinant phage T7: 1270 fold

B1: RMS-P3/RR peptide (peptide)
peptide: CMGTINTRTRRC
modifications: not fully specified (bridges); also: cyclic peptide, mode of cyclisation not given here
[4]
  furin activity (cleavage of the fluorogenic substrate Boc-RRVR-AMC by 3.3U recombinant furin) with increasing concentrations of RMS-P3/RR (10-100 µM); activity left at 100 µM (% of the control): 14
